Reference: US9783527B2, “Indazole ureas and method of use” (AbbVie Inc., priority 2014, dated 2017)

Columns and labels:
[1] = test system: MIA-induced osteoarthritic pain in rats; experiment: Osteoarthritic (OA) pain induced by sodium monoiodoacetate (MIA), hind limb grip force; assay type: in vivo, rat; conditions: male Sprague Dawley rats, grip force 20 days after MIA injection
Protocol: Osteoarthritic (OA) Pain Induced by Sodium Monoiodoacetate (MIA)
Pain behavior was assessed by measurement of hind limb grip force (GF) in adult osteoarthritic rats. Male Sprague Dawley rats, obtained from Charles River Laboratories, (Wilmington, Mass.), weighing 150-175 g, were injected in the unilateral knee join with a single intra-articular injection of sodium monoiodoacetate (MIA, 3 mg/rat). All rats were tested at 20 days following MIA injection. A behavioral measure of activity-induced pain was carried out. Measurements of the peak hind limb grip force were conducted by recording the maximum compressive force (CFmax), in grams of force, exerted on a hind limb strain gauge setup, in a commercially available grip force measurement system (Columbus Instruments, Columbus, Ohio).
During testing, each rat was gently restrained by grasping it around its rib cage and then allowed to grasp the wire mesh frame attached to the strain gauge. The experimenter then moved the animal in a rostral-to-caudal direction until the grip was broken. Each rat was sequentially tested twice at an approximately 2-3 minute interval to obtain a raw mean grip force (CFmax). This raw mean grip force data was in turn converted to a maximum hindlimb cumulative compressive force (CFmax), as the grams of force/kg of body weight, for each animal.
For evaluating the compound effects, the hind limb grip force was conducted 20 days following the intra-articular injection of MIA. A group of age-matched nave (not injected with MIA) animals was added as a comparator to the drug-dosed groups. The vehicle control response for each group of MIA-treated animals was defined as the 0% response (0% effect), whereas the nave control group was defined as the normal response and as 100% effect. The % effect for each dose group was expressed as % return of response to normalcy, compared to the nave group. A percent maximal possible effect (% MPE) of testing compound was calculated according to the formula: (Treatment CFmax−Vehicle CFmax)/Vehicle CFmax]×100). Higher % effect numbers indicate increased relief from the pain in the model, with 100% indicating a return to the level of response seen in normal (non-osteoarthritic) animals. All experiments evaluating drug effects in this model were conducted in a randomized blinded fashion.
The animals were housed in Association for Assessment and Accreditation of Laboratory Animal Care (AAALAC) approved facilities at AbbVie Inc. in a temperature-regulated environment under a controlled 12-hour light-dark cycle, with lights on at 6:00 a.m. Food and water were available ad libitum at all times except during testing. All testing was done following procedures outlined in protocols approved by AbbVie Inc.'s Institutional Animal Care and Use Committee.

human Nav1.7 = human Nav1.7 (Homo sapiens (Human), UniProt Q15858); experiment: FRET-based membrane potential assay, recombinant human sodium channel Nav1.7; assay type: cell-based; conditions: HEK293 cells stably expressing recombinant human Nav1.7; depolarization with veratridine (EC80) + scorpion venom
human Nav1.7, sequence (Q15858 whole entry): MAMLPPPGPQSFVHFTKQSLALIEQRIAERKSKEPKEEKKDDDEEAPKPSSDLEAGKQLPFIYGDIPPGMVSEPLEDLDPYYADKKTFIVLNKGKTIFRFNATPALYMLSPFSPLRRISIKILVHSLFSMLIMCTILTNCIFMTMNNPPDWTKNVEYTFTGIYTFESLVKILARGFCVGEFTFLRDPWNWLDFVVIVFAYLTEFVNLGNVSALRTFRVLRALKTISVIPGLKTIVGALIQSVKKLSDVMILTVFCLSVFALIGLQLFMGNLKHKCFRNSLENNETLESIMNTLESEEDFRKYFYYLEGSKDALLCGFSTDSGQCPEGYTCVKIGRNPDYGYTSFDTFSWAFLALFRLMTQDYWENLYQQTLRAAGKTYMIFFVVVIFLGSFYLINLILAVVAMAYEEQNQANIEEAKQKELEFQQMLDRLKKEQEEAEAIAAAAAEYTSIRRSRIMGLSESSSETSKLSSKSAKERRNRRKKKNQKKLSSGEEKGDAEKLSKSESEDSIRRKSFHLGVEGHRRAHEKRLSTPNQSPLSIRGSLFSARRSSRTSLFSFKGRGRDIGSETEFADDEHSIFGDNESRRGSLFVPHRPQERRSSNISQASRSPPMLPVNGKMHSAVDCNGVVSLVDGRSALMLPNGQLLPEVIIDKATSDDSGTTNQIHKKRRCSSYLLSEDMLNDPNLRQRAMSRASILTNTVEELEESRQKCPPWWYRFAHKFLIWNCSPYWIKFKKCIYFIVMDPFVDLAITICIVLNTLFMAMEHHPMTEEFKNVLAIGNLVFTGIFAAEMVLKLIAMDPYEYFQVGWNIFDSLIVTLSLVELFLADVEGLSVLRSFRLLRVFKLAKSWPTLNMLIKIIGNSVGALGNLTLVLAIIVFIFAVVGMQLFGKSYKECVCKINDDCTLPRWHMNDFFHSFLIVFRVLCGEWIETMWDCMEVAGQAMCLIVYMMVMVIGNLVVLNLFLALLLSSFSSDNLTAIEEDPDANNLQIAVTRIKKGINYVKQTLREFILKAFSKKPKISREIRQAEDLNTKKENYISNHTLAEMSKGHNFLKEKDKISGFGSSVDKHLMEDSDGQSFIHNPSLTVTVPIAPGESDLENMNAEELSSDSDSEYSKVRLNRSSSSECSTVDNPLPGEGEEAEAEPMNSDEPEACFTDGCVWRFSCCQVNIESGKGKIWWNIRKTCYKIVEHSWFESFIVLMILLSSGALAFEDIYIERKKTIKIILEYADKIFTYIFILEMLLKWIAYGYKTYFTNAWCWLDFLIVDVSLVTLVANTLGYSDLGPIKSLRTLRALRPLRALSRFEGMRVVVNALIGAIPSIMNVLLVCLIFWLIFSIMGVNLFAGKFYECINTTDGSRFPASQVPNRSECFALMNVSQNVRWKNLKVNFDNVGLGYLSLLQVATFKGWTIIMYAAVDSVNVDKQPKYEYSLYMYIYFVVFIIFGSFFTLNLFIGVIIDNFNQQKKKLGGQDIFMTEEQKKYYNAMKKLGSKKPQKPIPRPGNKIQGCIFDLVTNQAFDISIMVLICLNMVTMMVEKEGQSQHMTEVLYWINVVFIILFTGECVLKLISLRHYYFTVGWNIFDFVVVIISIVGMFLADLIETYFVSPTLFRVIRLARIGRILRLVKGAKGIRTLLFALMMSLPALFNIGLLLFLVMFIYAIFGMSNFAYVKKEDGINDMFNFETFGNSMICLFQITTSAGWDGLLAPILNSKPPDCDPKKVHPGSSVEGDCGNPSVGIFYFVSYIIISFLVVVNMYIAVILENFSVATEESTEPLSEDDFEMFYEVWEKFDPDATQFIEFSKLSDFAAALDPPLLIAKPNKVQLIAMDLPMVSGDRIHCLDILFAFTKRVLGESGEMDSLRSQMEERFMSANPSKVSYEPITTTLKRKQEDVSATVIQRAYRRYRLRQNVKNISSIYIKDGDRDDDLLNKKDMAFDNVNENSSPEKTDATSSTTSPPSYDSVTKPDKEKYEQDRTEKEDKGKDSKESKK
Summary of the method: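 IC50 derived by four-parameter Hill fit of percent inhibition of depolarization, measured as peak F440-480/F565-625 ratio over baseline. Stable human Nav1.7 HEK293 cells, dye-loaded with CC2-DMPE and DiSBAC2(3)/VABSC-1 at room temperature, received compound 3 min ahead of veratridine (EC80) plus scorpion venom.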

human Nav1.8 = human Nav1.8 (Homo sapiens (Human), UniProt Q9Y5Y9); experiment: FRET-based membrane potential assay, recombinant human sodium channel Nav1.8; assay type: cell-based; conditions: HEK293 cells stably expressing recombinant human Nav1.8; depolarization with veratridine (EC80) + scorpion venom
human Nav1.8, sequence (Q9Y5Y9 whole entry): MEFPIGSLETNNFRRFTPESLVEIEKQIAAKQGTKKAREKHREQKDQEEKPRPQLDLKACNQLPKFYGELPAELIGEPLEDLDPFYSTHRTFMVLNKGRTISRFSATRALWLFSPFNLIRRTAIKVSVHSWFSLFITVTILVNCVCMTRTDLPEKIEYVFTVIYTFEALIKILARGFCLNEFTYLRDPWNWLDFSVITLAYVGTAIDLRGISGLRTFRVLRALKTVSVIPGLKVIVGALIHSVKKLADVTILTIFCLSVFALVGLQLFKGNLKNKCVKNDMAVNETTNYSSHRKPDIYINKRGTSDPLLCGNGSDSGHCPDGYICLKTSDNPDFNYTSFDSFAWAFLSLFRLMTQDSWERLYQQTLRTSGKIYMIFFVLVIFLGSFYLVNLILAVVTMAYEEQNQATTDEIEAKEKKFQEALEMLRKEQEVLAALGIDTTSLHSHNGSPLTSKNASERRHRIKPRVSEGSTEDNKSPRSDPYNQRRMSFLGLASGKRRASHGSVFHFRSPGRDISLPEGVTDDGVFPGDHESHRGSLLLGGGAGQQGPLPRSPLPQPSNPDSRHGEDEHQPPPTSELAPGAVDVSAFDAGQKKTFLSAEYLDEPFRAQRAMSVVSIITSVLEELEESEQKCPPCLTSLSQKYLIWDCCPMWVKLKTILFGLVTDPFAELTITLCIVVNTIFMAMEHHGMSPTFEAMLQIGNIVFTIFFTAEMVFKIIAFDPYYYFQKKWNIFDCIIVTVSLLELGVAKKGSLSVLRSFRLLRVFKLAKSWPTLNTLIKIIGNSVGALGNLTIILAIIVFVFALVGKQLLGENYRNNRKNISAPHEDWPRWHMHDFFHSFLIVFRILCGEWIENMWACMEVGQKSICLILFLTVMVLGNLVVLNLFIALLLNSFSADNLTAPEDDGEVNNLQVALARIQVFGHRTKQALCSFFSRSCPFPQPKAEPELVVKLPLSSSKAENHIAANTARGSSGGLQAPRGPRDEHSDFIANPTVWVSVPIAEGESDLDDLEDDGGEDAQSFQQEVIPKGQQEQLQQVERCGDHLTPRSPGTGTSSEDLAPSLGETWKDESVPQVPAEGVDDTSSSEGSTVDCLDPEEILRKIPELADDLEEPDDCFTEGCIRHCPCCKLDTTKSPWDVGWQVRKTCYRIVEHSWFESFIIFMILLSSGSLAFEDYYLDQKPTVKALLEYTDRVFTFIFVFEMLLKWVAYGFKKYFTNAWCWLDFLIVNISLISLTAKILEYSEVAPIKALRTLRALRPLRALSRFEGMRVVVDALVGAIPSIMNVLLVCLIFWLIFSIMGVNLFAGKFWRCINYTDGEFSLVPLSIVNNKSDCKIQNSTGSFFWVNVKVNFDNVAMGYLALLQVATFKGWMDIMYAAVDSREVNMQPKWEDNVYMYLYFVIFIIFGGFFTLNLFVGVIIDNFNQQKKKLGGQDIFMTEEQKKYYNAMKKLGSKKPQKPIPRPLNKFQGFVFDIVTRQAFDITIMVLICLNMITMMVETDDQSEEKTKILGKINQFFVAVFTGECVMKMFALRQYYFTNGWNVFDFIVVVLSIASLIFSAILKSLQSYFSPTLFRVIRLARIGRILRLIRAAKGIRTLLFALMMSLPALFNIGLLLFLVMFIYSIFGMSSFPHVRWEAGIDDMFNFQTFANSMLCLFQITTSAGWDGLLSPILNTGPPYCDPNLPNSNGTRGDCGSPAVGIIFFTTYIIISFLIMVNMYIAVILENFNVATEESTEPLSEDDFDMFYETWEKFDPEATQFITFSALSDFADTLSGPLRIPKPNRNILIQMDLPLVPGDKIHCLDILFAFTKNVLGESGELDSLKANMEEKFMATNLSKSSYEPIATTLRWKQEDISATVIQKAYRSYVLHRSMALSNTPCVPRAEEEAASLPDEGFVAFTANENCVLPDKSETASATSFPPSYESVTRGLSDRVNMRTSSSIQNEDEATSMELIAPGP
Summary of the method: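 HEK293 cells stably expressing Nav1.8 were loaded with CC2-DMPE/DiSBAC2(3) FRET voltage dyes. Compounds were added 3 min before depolarization with EC80 veratridine plus scorpion venom. The F440-480/F565-625 ratio was read on FLIPR; IC50 came from four-parameter Hill fits.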

SMILES	OA MPE (%) ([1]; OA dose 30 mg/kg)	IC50 (human Nav1.7) [nM]	OA MPE (%) ([1]; OA dose 10 mg/kg)	IC50 (human Nav1.8) [nM]
O=C(CN1CCN(c2cccc3c2cnn3-c2ccccc2F)C1=O)NC1CC1 [Example 13, N-cyclopropyl-2-{3-[1-(2-fluorophenyl)-1H-indazol-4-yl]-2-oxoimidazolidin-1-yl}acetamide]	47	–	–	–
O=C1N(Cc2nc(C(F)(F)F)cs2)CCN1c1cccc2c1cnn2-c1ccccc1F [Example 14, 1-[1-(2-fluorophenyl)-1H-indazol-4-yl]-3-{[4-(trifluoromethyl)-1,3-thiazol-2-yl]methyl}imidazolidin-2-one]	60	618	–	–
O=C1N(CC(=O)N2C[C@@H]3C[C@H]2CO3)CCN1c1cccc2c1cnn2-c1ccccc1F [Example 16, 1-[1-(2-fluorophenyl)-1H-indazol-4-yl]-3-{2-[(1S,4S)-2-oxa-5-azabicyclo[2.2.1]hept-5-yl]-2-oxoethyl}imidazolidin-2-one]	67	738	–	–
O=C(CN1CCN(c2cccc3c2cnn3-c2ccccc2F)C1=O)N1CCCC(F)C1 (stereo not shown) [Example 17, 1-[1-(2-fluorophenyl)-1H-indazol-4-yl]-3-[2-(3-fluoropiperidin-1-yl)-2-oxoethyl]imidazolidin-2-one]	91	–	–	–
O=C1N(CC(=O)N2C[C@@H](F)C[C@@H]2c2cc(F)ccc2F)CCN1c1cccc2c1cnn2-c1ccccc1F [Example 18, 1-{2-[(2R,4S)-2-(2,5-difluorophenyl)-4-fluoropyrrolidin-1-yl]-2-oxoethyl}-3-[1-(2-fluorophenyl)-1H-indazol-4-yl]imidazolidin-2-one]	–	578	65	–
O=C1N(c2cccnc2)CCN1c1cccc2c1cnn2-c1ccccc1F [Example 19, 1-[1-(2-fluorophenyl)-1H-indazol-4-yl]-3-(pyridin-3-yl)imidazolidin-2-one]	–	2920	67	–
O=C1N(c2ccncc2)CCN1c1cccc2c1cnn2-c1ccccc1F [Example 20, 1-[1-(2-fluorophenyl)-1H-indazol-4-yl]-3-(pyridin-4-yl)imidazolidin-2-one]	–	–	91	–
CC(C)(C)C(O)CN1CCN(c2cccc3c2cnn3-c2ccccc2F)C1=O (stereo not shown) [Example 22, 1-[1-(2-fluorophenyl)-1H-indazol-4-yl]-3-(2-hydroxy-3,3-dimethylbutyl)imidazolidin-2-one]	38	3000	–	–
O=C(CN1CCCN(c2cccc3c2cnn3-c2ccccc2F)C1=O)N1CC[C@H](F)C1 [Example 23, 1-[1-(2-fluorophenyl)-1H-indazol-4-yl]-3-{2-[(3S)-3-fluoropyrrolidin-1-yl]-2-oxoethyl}tetrahydropyrimidin-2(1H)-one]	45	1470	–	–
Cc1csc(CN2CCN(c3cccc4c3cnn4-c3ccccc3F)C2=O)n1 [Example 24, 1-[1-(2-fluorophenyl)-1H-indazol-4-yl]-3-[(4-methyl-1,3-thiazol-2-yl)methyl]imidazolidin-2-one]	–	338	62	–
O=C1N(c2ncccn2)CCN1c1cccc2c1cnn2-c1ccccc1F [Example 28, 1-[1-(2-fluorophenyl)-1H-indazol-4-yl]-3-(pyrimidin-2-yl)imidazolidin-2-one]	–	457	62	–
O=C1N(Cc2nnco2)CCN1c1cccc2c1cnn2-c1ccccc1F [Example 29, 1-[1-(2-fluorophenyl)-1H-indazol-4-yl]-3-(1,3,4-oxadiazol-2-ylmethyl)imidazolidin-2-one]	–	2190	46	–
O=C1N(Cc2nnc(C3CC3)s2)CCN1c1cccc2c1cnn2-c1ccccc1F [Example 30, 1-[(5-cyclopropyl-1,3,4-thiadiazol-2-yl)methyl]-3-[1-(2-fluorophenyl)-1H-indazol-4-yl]imidazolidin-2-one]	–	1300	80	–
Cc1cnc(N2CCN(c3cccc4c3cnn4-c3ccccc3F)C2=O)nc1 [Example 33, 1-[1-(2-fluorophenyl)-1H-indazol-4-yl]-3-(5-methylpyrimidin-2-yl)imidazolidin-2-one]	–	624	17	–
O=C1N(Cc2nccs2)CCN1c1cccc2c1cnn2-c1ccccc1F [Example 34, 1-[1-(2-fluorophenyl)-1H-indazol-4-yl]-3-(1,3-thiazol-2-ylmethyl)imidazolidin-2-one]	–	420	43	–
O=C1N(Cc2cnccn2)CCN1c1cccc2c1cnn2-c1ccccc1F [Example 35, 1-[1-(2-fluorophenyl)-1H-indazol-4-yl]-3-(pyrazin-2-ylmethyl)imidazolidin-2-one]	–	747	19	–
O=C1N(Cc2ncco2)CCN1c1cccc2c1cnn2-c1ccc(F)cc1F [Example 36, 1-[1-(2,4-difluorophenyl)-1H-indazol-4-yl]-3-(1,3-oxazol-2-ylmethyl)imidazolidin-2-one]	–	643	27	–
O=C1N(Cc2cocn2)CCN1c1cccc2c1cnn2-c1ccc(F)cc1F [Example 37, 1-[1-(2,4-difluorophenyl)-1H-indazol-4-yl]-3-(1,3-oxazol-4-ylmethyl)imidazolidin-2-one]	–	392	35	–
C[C@H]1CN(c2cccc3c2cnn3-c2ccccc2F)C(=O)N1Cc1ncco1 [Example 38, (4S)-1-[1-(2-fluorophenyl)-1H-indazol-4-yl]-4-methyl-3-(1,3-oxazol-2-ylmethyl)imidazolidin-2-one]	–	1390	33	–
O=C1N(Cc2cscn2)CCN1c1cccc2c1cnn2-c1ccccc1F [Example 39, 1-[1-(2-fluorophenyl)-1H-indazol-4-yl]-3-(1,3-thiazol-4-ylmethyl)imidazolidin-2-one]	–	301	38	–
Cc1cncc(CN2CCN(c3cccc4c3cnn4-c3ccccc3F)C2=O)n1 [Example 42, 1-[1-(2-fluorophenyl)-1H-indazol-4-yl]-3-[(6-methylpyrazin-2-yl)methyl]imidazolidin-2-one]	–	–	35	–
O=C(CN1CCN(c2cccc3c2cnn3-c2ccccc2F)C1=O)N1CCC[C@H](F)C1 [Example 54, 1-[1-(2-fluorophenyl)-1H-indazol-4-yl]-3-{2-[(3S)-3-fluoropiperidin-1-yl]-2-oxoethyl}imidazolidin-2-one]	57	–	–	–
CN(C(=O)CN1CCN(c2cccc3c2cnn3-c2ccccc2F)C1=O)C1CCC1 [Example 351, N-cyclobutyl-2-{3-[1-(2-fluorophenyl)-1H-indazol-4-yl]-2-oxoimidazolidin-1-yl}-N-methylacetamide]	–	3480	–	1850
CC1CN(C(=O)CN2CCN(c3cccc4c3cnn4-c3ccccc3F)C2=O)C1 [Example 352, 1-[1-(2-fluorophenyl)-1H-indazol-4-yl]-3-[2-(3-methylazetidin-1-yl)-2-oxoethyl]imidazolidin-2-one]	–	1510	–	2580
O=C(CN1CCN(c2cccc3c2cnn3-c2ccccc2F)C1=O)NC1(C(F)(F)F)CCC1 [Example 353, 2-{3-[1-(2-fluorophenyl)-1H-indazol-4-yl]-2-oxoimidazolidin-1-yl}-N-[1-(trifluoromethyl)cyclobutyl]acetamide]	–	3310	–	1690
O=C(CN1CCN(c2cccc3c2cnn3-c2ccccc2F)C1=O)NC1CC(=NO)C1 (stereo not shown) [Example 354, 2-{3-[1-(2-fluorophenyl)-1H-indazol-4-yl]-2-oxoimidazolidin-1-yl}-N-[3-(hydroxyimino)cyclobutyl]acetamide]	–	6500	–	16600
CON=C1CC(NC(=O)CN2CCN(c3cccc4c3cnn4-c3ccccc3F)C2=O)C1 (stereo not shown) [Example 355, 2-{3-[1-(2-fluorophenyl)-1H-indazol-4-yl]-2-oxoimidazolidin-1-yl}-N-[3-(methoxyimino)cyclobutyl]acetamide]	–	9230	–	4050
